Test results from patent US5708007A, “2-(piperidin-4-yl, pyridin-4-yl and tetrahydropyridin-4-yl) benzofuran-7-ol and carbamate derivatives for treating memory dysfunction” (priority 1996, dated 1998).

Target: T1, Brain AChE (Rattus norvegicus, UniProt P37136)
T1 construct: corpora striata dissected free, weighed and homogenized in 19 volumes; from tissue; host or cells: corpora striata of male Wistar rats, crude homogenate in 0.05M phosphate buffer
T1 sequence (P37136 32-614): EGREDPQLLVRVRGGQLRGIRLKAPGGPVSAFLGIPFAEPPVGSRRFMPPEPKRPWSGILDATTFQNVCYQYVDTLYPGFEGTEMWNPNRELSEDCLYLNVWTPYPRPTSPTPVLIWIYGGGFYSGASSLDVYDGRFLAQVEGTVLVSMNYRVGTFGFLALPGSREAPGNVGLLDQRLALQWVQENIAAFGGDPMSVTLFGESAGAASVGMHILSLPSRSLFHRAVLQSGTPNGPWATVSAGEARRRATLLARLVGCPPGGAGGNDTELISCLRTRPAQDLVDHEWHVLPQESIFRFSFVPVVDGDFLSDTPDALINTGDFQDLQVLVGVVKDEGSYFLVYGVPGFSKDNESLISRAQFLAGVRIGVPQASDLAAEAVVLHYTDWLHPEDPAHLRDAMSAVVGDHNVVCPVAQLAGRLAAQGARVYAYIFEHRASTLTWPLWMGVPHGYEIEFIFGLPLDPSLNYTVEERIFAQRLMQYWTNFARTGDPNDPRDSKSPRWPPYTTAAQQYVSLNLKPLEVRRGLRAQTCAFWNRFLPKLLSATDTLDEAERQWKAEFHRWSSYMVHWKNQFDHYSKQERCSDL
Test: biochemical
Set-up: species or system rat (male Wistar)
Conditions: rat striatum homogenate; acetylthiocholine 5 mM final; pH 7.2; 10 min preincubation at 37° C.; log-probit analysis; read-out: Inhibitory Concentration (μM) Brain AChE
Excerpt: Cholinesterases are found throughout the body, both in the brain and in serum. However, only brain acetylcholinesterase (AChE) distribution is correlated with central cholinergic innervation. […] We have determined in vitro inhibition of acetylcholinesterase activity in rat striatum according to the method described below.
In Vitro Inhibition of Acetylcholinesterase Activity in Rat Striatum
The method described below was used in this invention for assaying anticholinesterase activity. This is a modification of the method of Ellman et al., Biochem. Pharmacol. 7, 88 (1961).
1. 0.05M Phosphate buffer, pH 7.2
(c) add (a) to (b) until pH reaches 7.2
4. A 2 mM stock solution of the test drug is made up in a suitable solvent and brought to volume with 0.5 mM DTNB (reagent 3). Drugs are serially diluted (1:10) such that the final concentration (in cuvette) is 10^-4 M and screened for activity. If active, IC50 values are determined from the inhibitory activity of subsequent concentrations.
Enzyme activity is measured with the Beckman DU-50 spectrophotometer. This method can be used for IC50 determinations and for measuring kinetic constants.
Reagents are added to the blank and sample cuvettes as follows:
This program also calculates the rate of absorbance change for each cuvette.
Substrate concentration is 10 mM diluted 1:2 in assay yielding final concentration of 5 mM.
IC50 values are calculated from log-probit analysis.

Question: `CN(C)C(=O)Oc1cccc2cc(C3CCNCC3)oc12` [2-(4-PIPERIDINYL)BENZOFURAN-7-YL DIMETHYL CARBAMATE HEMIFUMARATE] was tested. Which IC50 did it give?
Answer: 1.9 µM

Question: How did the IC50 turn out when `CNC(=O)Oc1cccc2cc(C3CCN(C)CC3)oc12` [2-(1-METHYL-4-PIPERIDINYL)-BENZOFURAN-7-YL METHYL CARBAMATE] was run?
Answer: 1.8 µM

Question: `CNC(=O)Oc1cccc2cc(-c3ccncc3)oc12` [2-(4-PYRIDINYL)BENZOFURAN-7-YL METHYL CARBAMATE] was tested. Which IC50 did it give?
Answer: 1.2 µM
